In ChEMBL document CHEMBL6087451, “Design, Synthesis, and Biological Evaluation of 2-Arylaminopyrimidine Derivatives as Dual Cathepsin L and JAK Inhibitors for the Treatment of Acute Lung Injury” (J Med Chem, 2025):
The source made the active and inactive calls. The rule behind the calls is not given here.

What was measured:
[1] = (§1) Anti-inflammatory activity against HBE cells assessed as inhibition of LPS-induced IL-6 level at 5 uM pretreated for 30 mins followed by LPS treatment for 24 hrs by ELISA relative to control; type: functional; conditions: Homo sapiens, time 24.5 hrs
HBE [2] = test: (§2) Anti-inflammatory activity against HBE cells assessed as inhibition of LPS-induced IL-8 level at 5 uM pretreated for 30 mins followed by LPS treatment for 24 hrs by ELISA relative to control; type: functional; conditions: Homo sapiens, time 24.5 hrs
HBE [3] = test: as §1; type: functional; conditions: Homo sapiens, time 24.5 hrs
[4] = Cytotoxicity against HBE cells assessed as cell survival at 10 uM by MTT assay relative to control; type: toxicity, cell-based; conditions: human; for viability at 10 µM: HBE cells, read-out: Survival
[5] = as §2; type: functional; conditions: Homo sapiens, time 24.5 hrs

SMILES | inhibition at 5 µM [1] [%] | inhibition (HBE [2]) | inhibition (HBE [3]) | viability at 10 µM [4] [%] | inhibition at 5 µM [5] [%] | Activity ([4]; hbe, 10 µM)
Cn1cc(-c2ccnc(Nc3ccccc3)n2)c2ccccc21 | 85 | inactive |  |  |  | 
Cn1cc(-c2ccnc(NC3CCCCC3)n2)c2ccccc21 |  | inactive | inactive |  |  | 
CN(c1cccc(N)c1)c1nccc(-c2cn(C)c3ccccc23)n1 |  | inactive | inactive |  |  | 
Cc1ccc(Oc2nccc(-c3cn(C)c4ccccc34)n2)cc1 |  | inactive | inactive |  |  | 
COc1ccccc1Nc1nccc(-c2cn(C)c3ccccc23)n1 | 38 | inactive |  |  |  | 
Cn1cc(-c2ccnc(Nc3ccccn3)n2)c2ccccc21 | 68 |  |  | < 70 | 56 | 
Nc1cccc(Nc2nccc(N)n2)c1 |  | inactive | inactive |  |  | 
COc1cc(OC)cc(Oc2ccnc(Nc3cccc(N)c3)n2)c1 | 54 |  |  |  | 56 | 
Nc1cccc(Nc2nccc(Sc3ccc(Cl)cc3)n2)c1 | 54 |  |  |  | 56 | 
CC(C)Nc1nccc(-c2cn(C)c3ccccc23)n1 |  | inactive | inactive |  |  | 
Cn1cc(-c2ccnc(Nc3ccccc3N)n2)c2ccccc21 | 61 |  |  |  | 69 | 
CCOc1ccc(Nc2ccnc(Nc3cccc(N)c3)n2)cc1 | 54 |  |  |  | 56 | 
Cn1cc(-c2ccnc(Nc3cccc(C#N)c3)n2)c2ccccc21 | 54 |  |  |  | 56 | 
COc1cccc(Nc2ccnc(Nc3cccc(N)c3)n2)c1OC | 54 |  |  |  | 56 | 
Cn1cc(-c2ccnc(Nc3cccnc3)n2)c2ccccc21 | 54 |  |  | < 70 | 56 | 
Cn1cc(-c2ccnc(Nc3ncccn3)n2)c2ccccc21 |  |  | inactive |  | 12 | 
Nc1cccc(Nc2nccc(Nc3ccc4[nH]ccc4c3)n2)c1 | > 65 |  |  |  | > 65 | 
Cc1ccccc1Nc1ccnc(Nc2cccc(N)c2)n1 | 54 |  |  |  | 56 | 
CCCCNc1nccc(-c2cn(C)c3ccccc23)n1 |  | inactive | inactive | < 70 |  | 
Nc1cccc(Nc2nccc(Oc3ccccc3)n2)c1 | 54 |  |  |  | 56 | 

SMILES | inhibition at 5 µM [1] [%] | inhibition (HBE [2]) | inhibition (HBE [3]) | viability at 10 µM [4] [%] | inhibition at 5 µM [5] [%] | Activity ([4]; hbe, 10 µM)
Cn1ccc(Nc2nccc(-c3cn(C)c4ccccc34)n2)n1 | 54 |  |  |  | 56 | 
COc1c(Br)cccc1Nc1ccnc(Nc2cccc(N)c2)n1 | 54 |  |  |  | 56 | 
Nc1cccc(Nc2nccc(Nc3cccc(Cl)c3)n2)c1 | 54 |  |  |  | 56 | 
Cn1cc(-c2ccnc(Nc3cccc(Cl)c3)n2)c2ccccc21 | 54 |  |  |  | 56 | 
Cn1cc(-c2ccnc(Nc3cccc(CC(=O)O)c3)n2)c2ccccc21 | 54 |  |  |  | 56 | 
CC(C)(C)c1ccc(Nc2ccnc(Nc3cccc(N)c3)n2)cc1 | 54 |  |  |  | 56 | 
COc1ccc(Nc2ccnc(Nc3cccc(N)c3)n2)cc1 | 54 |  |  |  | 56 | 
Nc1cccc(Nc2nccc(Nc3ccc(F)cc3)n2)c1 | 54 |  |  |  | 56 | 
Nc1cccc(Nc2nccc(Oc3ccc4[nH]ccc4c3)n2)c1 | > 65 |  |  |  | > 65 | 
COc1cccc(Oc2ccnc(Nc3cccc(N)c3)n2)c1 | 54 |  |  |  | 56 | 
Cn1cc(-c2ccnc(Nc3cc(N)ccc3F)n2)c2ccccc21 | 69 |  |  |  | 83 | 
COc1ccc(Oc2ccnc(Nc3cccc(N)c3)n2)cc1OC | 54 |  |  |  | 56 | 
Cn1cc(-c2ccnc(Nc3ccc(Cl)cc3)n2)c2ccccc21 | 54 |  |  |  | 56 | 
COc1ccc(Nc2ccnc(Nc3cccc(N)c3)n2)c(OC)c1 | 54 |  |  |  | 56 | 
Nc1cccc(Nc2nccc(Oc3cccc(N)c3)n2)c1 | 54 |  |  |  | 56 | 
N#Cc1cccc(Nc2ccnc(Nc3cccc(N)c3)n2)c1 | 54 |  |  |  | 56 | 
Nc1cccc(Nc2nccc(Sc3ccc(F)cc3)n2)c1 | 54 |  |  |  | 56 | 
Nc1cccc(Nc2nccc(-c3c[nH]c4ccccc34)n2)c1 |  | Active | Active |  |  | Toxic
Cn1cc(-c2ccnc(NC3CC3)n2)c2ccccc21 |  | inactive | inactive | < 70 |  | 
Cn1nccc1Nc1nccc(-c2cn(C)c3ccccc23)n1 | 54 |  |  |  | 64 | 
